From patent publication US20240277795A1, “INHIBITORS OF CYSTEINE PROTEASES AND METHODS OF USE THEREOF” (Pardes Biosciences, Inc., priority 2021, published 2024) come the findings set out here.

SMILES strings stand for the structures. Like-named read-outs stand apart in the source and are kept apart here. Bounds are passed on as bounds.

The target in one assay is 229E Mpro (Human coronavirus 229E, UniProt P0C6X1). The assay can be described thus: 229E Mpro enzymatic assay. The following applies: Table 3. The class given is biochemical, HCoV 229E.
The next assay deals with SARS-COV2 Mpro (Severe acute respiratory syndrome coronavirus 2, UniProt P0DTD1). The assay can be described thus: COVID-19 (nCoV-2019, SARS-CoV2) Mpro enzymatic assay. The class given is biochemical.
For a further assay, the system named is HCoV 229E. The assay can be described thus: HCoV 229E cytopathic effect (CPE) assay. The class given is cell-based. The following applies: Table 4; CellTiter Glo; read-out: 229E CPE EC50. The protocol: (§1) Compounds were assayed using standard methods against multiple coronaviral strains, including HCoV 229E and OC43 strains. The antiviral activity of compounds was calculated based on the protection of the virus-induced CPE at each concentration normalized by the virus control.
(§2) Reagents and instruments used in this assay include luminescent cell viability assay kit CellTiter Glo (Promega) and Microplate Reader Synergy2 (BioTek).
Cytopathic effect (CPE) was measured by CellTiter Glo following the manufacturer's manual. The antiviral activity of compounds was calculated based on the protection of the virus-induced CPE at each concentration normalized by the virus control.
(§3) The cytotoxicity of compounds was assessed under the same conditions, but without virus infection, in parallel. Cell viability was measured with CellTiter Glo. The antiviral activity and cytotoxicity of compounds were expressed as % Inhibition and % Viability, respectively, and calculated with formulas.
On the technique in general: Damage to the host cells serves as the signal in cytopathic effect assays.

Another assay relates to HCov OC43. The assay can be described thus: HCoV OC43 cytopathic effect (CPE) assay. The assay is classed as cell-based. The following applies: Table 4, CellTiter Glo. As to the method: as §1, §2
Reference compound used was remdesivir; detection reagent: CellTiter Glo.) The CPE were measured by CellTiter Glo following the manufacturer's manual. The antiviral activity of compounds was calculated based on the protection of the virus-induced CPE at each concentration normalized by the virus control.
as §3

In the next assay the target is OC43 Mpro (Human coronavirus OC43, UniProt P0C6X6). The assay can be described thus: OC43 Mpro enzymatic assay. The class given is biochemical, HCoV OC43. The following applies: Table 3.
Assay [1] has as its system SARS-CoV-2 WT replicon in Huh7 cells. The assay can be described thus: microbe, parasite or virus in culture. The assay is classed as cell-based. The following applies: Severe acute respiratory syndrome coronavirus 2, Huh-7, 24 h.

Chain of OC43 Mpro (P0C6X6 3247-3549): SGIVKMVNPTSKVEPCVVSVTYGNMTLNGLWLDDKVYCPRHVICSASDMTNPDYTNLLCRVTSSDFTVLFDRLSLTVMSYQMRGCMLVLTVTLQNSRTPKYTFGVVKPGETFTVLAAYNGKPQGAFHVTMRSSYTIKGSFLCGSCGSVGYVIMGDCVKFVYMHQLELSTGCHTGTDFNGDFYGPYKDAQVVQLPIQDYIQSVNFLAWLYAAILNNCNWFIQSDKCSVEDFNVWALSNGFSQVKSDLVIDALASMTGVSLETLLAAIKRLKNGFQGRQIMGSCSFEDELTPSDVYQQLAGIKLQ
Chain of 229E Mpro (P0C6X1 2966-3267): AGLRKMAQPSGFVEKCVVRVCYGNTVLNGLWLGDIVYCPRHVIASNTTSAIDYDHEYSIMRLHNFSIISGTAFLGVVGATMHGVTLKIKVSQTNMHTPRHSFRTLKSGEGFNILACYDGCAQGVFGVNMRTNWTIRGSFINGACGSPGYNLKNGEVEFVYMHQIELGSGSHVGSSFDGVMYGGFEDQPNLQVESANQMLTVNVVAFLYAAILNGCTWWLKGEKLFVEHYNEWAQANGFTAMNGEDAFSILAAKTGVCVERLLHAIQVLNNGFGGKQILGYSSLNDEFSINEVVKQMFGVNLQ

Consider `CC(C)(C)[C@H](NC(=O)c1cnccn1)C(=O)N1C[C@H]2[C@@H]([C@H]1C(=O)N[C@H](C#N)C[C@@H]1CCNC1=O)C2(C)C` (single isomer, unassigned) [101 Isomer 1], for which the IC50 against 229E Mpro, on SARS-COV2 Mpro and against OC43 Mpro was below 2 µM in each case. The 50% effective concentration (EC50) with HCoV 229E was 2 to 10 µM; with HCov OC43 (Betacoronavirus 1, OC43), below 2 µM.
Consider `CC(C)(C)[C@H](NC(=O)c1cnccn1)C(=O)N1C[C@H]2[C@@H]([C@H]1C(=O)N[C@H](C#N)C[C@@H]1CCNC1=O)C2(C)C` (single isomer, unassigned) [101 Isomer 2], for which the IC50 on 229E Mpro was below 2 µM; on SARS-COV2 Mpro (read-out: COVID-19 Mpro IC50, Table 3) it was below 2 µM; against OC43 Mpro, below 2 µM. For the same compound, the EC50 in the assay on HCoV 229E was 2 to 10 µM; in the assay on HCov OC43 it was below 2 µM.
Regarding `Cc1cc(C(=O)N[C@@H](Cc2cccc3ccccc23)C(=O)N[C@@H](CC2CC2)C(=O)N[C@H](C#N)C[C@@H]2CCCNC2=O)no1` [Compound 111, N—((S)-1-(((S)-1-(((S)-1-cyano-2-((S)-2-oxopiperidin-3-yl)ethyl)amino)-3-cyclopropyl-1-oxopropan-2-yl)amino)-3-(naphthalen-1-yl)-1-oxopropan-2-yl)-5-methylisoxazole-3-carboxamide], the IC50 is below 2 µM against 229E Mpro, 2 to 10 µM against SARS-COV2 Mpro and below 2 µM on OC43 Mpro. For the same compound, the EC50 was 10 to 30 µM with HCoV 229E and 2 to 10 µM in the assay with HCov OC43 (Betacoronavirus 1, OC43).
Take `Cc1cc(C(=O)N[C@@H](Cc2ccc(F)cc2)C(=O)N[C@@H](CC(C)C)C(=O)N[C@H](C#N)C[C@@H]2CCCNC2=O)no1` [Compound 113, N—((S)-1-(((S)-1-(((S)-1-cyano-2-((S)-2-oxopiperidin-3-yl)ethyl)amino)-4-methyl-1-oxopentan-2-yl)amino)-3-(4-tluorophenyl)-1-oxopropan-2-yl)-5-methylisoxazole-3-carboxamide]: the half-maximal inhibitory concentration (IC50) against 229E Mpro, against SARS-COV2 Mpro and against OC43 Mpro was below 2 µM in each case. For the same compound, the concentration for a half-maximal effect (EC50) in the assay on HCoV 229E was in the range of 2 to 10 µM; with HCov OC43 (Betacoronavirus 1, OC43), 2 to 10 µM.
For `N#C[C@H](C[C@@H]1CCCNC1=O)NC(=O)[C@H](CC1CC1)NC(=O)[C@H](Cc1cccc2ccccc12)NC(=O)c1cnccn1` [Compound 115, N—((S)-1-(((S)-1-(((S)-1-cyano-2-((S)-2-oxopiperidin-3-yl)ethyl)amino)-3-cyclopropyl-1-oxopropan-2-yl)amino)-3-(naphthalen-1-yl)-1-oxopropan-2-yl)pyrazine-2-carboxamide], the half-maximal inhibitory concentration (IC50) against 229E Mpro was below 2 µM; on SARS-COV2 Mpro, 2 to 10 µM; at OC43 Mpro, below 2 µM. For the same compound, the EC50 is 2 to 10 µM in the assay with HCoV 229E and 2 to 10 µM in the assay on HCov OC43 (Betacoronavirus 1, OC43).
Regarding `N#C[C@H](C[C@@H]1CCCNC1=O)NC(=O)[C@H](CC1CC1)NC(=O)[C@H](Cc1cccc2ccccc12)NC(=O)OCc1ccccc1` [Compound 116, Benzyl((S)-1-(((S)-1-(((S)-1-cyano-2-((S)-2-oxopiperidin-3-yl)ethyl)amino)-3-cyclopropyl-1-oxopropan-2-yl)amino)-3-(naphthalen-1-yl)-1-oxopropan-2-yl)carbamate], the IC50 against 229E Mpro, against SARS-COV2 Mpro and against OC43 Mpro was below 2 µM each time. Besides, the EC50 in the assay with HCoV 229E is 2 to 10 µM; in the assay on HCov OC43 (Betacoronavirus 1, OC43), below 2 µM.
Turning to `CC1(C)C[C@@H](C[C@@H](C#N)NC(=O)[C@H](CC2CC2)NC(=O)[C@H](Cc2cccc3ccccc23)NC(=O)c2cnccn2)C(=O)N1` [Compound 118, N—((S)-1-(((S)-1-(((S)-1-cyano-2-((R)-5,5-dimethyl-2-oxopyrrolidin-3-yl)ethyl)amino)-3-cyclopropyl-1-oxopropan-2-yl)amino)-3-(naphthalen-1-yl)-1-oxopropan-2-yl)pyrazine-2-carboxamide], the figures for the IC50 at 229E Mpro, against SARS-COV2 Mpro and at OC43 Mpro were below 2 µM, 2 to 10 µM and below 2 µM, respectively. Moreover, the EC50 lay within 2 to 10 µM in the assay on HCoV 229E and 2 to 10 µM with HCov OC43 (Betacoronavirus 1, OC43).
On to `N#C[C@H](C[C@@H]1CCNC1=O)NC(=O)[C@H](CC1CC1)NC(=O)[C@H](Cc1cccc2ccccc12)NC(=O)c1cnccn1` [Compound 119, N—((S)-1-(((S)-1-(((S)-1-cyano-2-((S)-2-oxopyrrolidin-3-yl)ethyl)amino)-3-cyclopropyl-1-oxopropan-2-yl)amino)-3-(naphthalen-1-yl)-1-oxopropan-2-yl)pyrazine-2-carboxamide], for which the half-inhibitory concentration (IC50) against 229E Mpro was below 2 µM; at SARS-COV2 Mpro, 2 to 10 µM; at OC43 Mpro, below 2 µM. Further, the 50% effective concentration (EC50) with HCoV 229E was 10 to 30 µM; in the assay on HCov OC43 (Betacoronavirus 1, OC43), 2 to 10 µM.
`Cc1cc(C(=O)N[C@@H](Cc2cccc3ccccc23)C(=O)N[C@@H](CC2CC2)C(=O)N[C@H](C#N)C[C@@H]2CC(C)(C)NC2=O)no1` [Compound 120, N—((S)-1-(((S)-1-(((S)-1-cyano-2-((R)-5,5-dimethyl-2-oxopyrrolidin-3-yl)ethyl)amino)-3-cyclopropyl-1-oxopropan-2-yl)amino)-3-(naphthalen-1-yl)-1-oxopropan-2-yl)-5-methylisoxazole-3-carboxamide]: the 50% inhibitory concentration (IC50) on 229E Mpro was below 2 µM; against SARS-COV2 Mpro it was 2 to 10 µM; against OC43 Mpro it was below 2 µM. In addition, the EC50 with HCoV 229E was 2 to 10 µM; with HCov OC43 (Betacoronavirus 1, OC43), below 2 µM.
On to `Cc1cc(C(=O)N[C@@H](Cc2cccc3ccccc23)C(=O)N[C@@H](CC2CC2)C(=O)N[C@H](C#N)C[C@@H]2CCNC2=O)no1` [Compound 121, N—((S)-1-(((S)-1-(((S)-1-cyano-2-((S)-2-oxopyrrolidin-3-yl)ethyl)amino)-3-cyclopropyl-1-oxopropan-2-yl)amino)-3-(naphthalen-1-yl)-1-oxopropan-2-yl)-5-methylisoxazole-3-carboxamide], for which the IC50 against 229E Mpro is below 2 µM; at SARS-COV2 Mpro, 2 to 10 µM; against OC43 Mpro it was below 2 µM. The EC50 with HCoV 229E fell in the range of 2 to 10 µM; in the assay with HCov OC43 (Betacoronavirus 1, OC43), 2 to 10 µM.
As to `N#C[C@H](C[C@@H]1CCCNC1=O)NC(=O)[C@H](CC1CC1)NC(=O)[C@H](Cc1ccc(F)cc1)NC(=O)OCc1ccccc1` [Compound 123], the IC50 against 229E Mpro is below 2 µM; on SARS-COV2 Mpro, 10 to 30 µM; against OC43 Mpro it was 2 to 10 µM. Also, the EC50 lay within 10 to 30 µM in the assay on HCoV 229E and 10 to 30 µM with HCov OC43 (Betacoronavirus 1, OC43).
With `N#C[C@H](C[C@@H]1CCNC1=O)NC(=O)C(CC1CCC(F)(F)CC1)NC(=O)[C@H](Cc1cccc2ccccc12)NC(=O)OCc1ccccc1` (stereo partly drawn) [Compound 128, benzylN-[(1S)-2-[[2-[[(1S)-1-cyano-2-[(3S)-2-oxopyrrolidin-3-yl]ethyl]amino]-1-[(4,4-difluorocyclohexyl)methyl]-2-oxo-ethyl]amino]-1-(1-naphthylmethyl)-2-oxo-ethyl]carbamate], the concentration for half-maximal inhibition (IC50) against 229E Mpro, at SARS-COV2 Mpro and against OC43 Mpro was below 2 µM throughout. The concentration giving a half-maximal response (EC50) in the assay on HCoV 229E was below 2 µM; in the assay on HCov OC43 (Betacoronavirus 1, OC43) it was below 2 µM.
As for `CC(C)(C)[C@H](NC(=O)OC1CCOC1)C(=O)N1C[C@H]2[C@@H]([C@H]1C(=O)N[C@H](C#N)C[C@@H]1CC3(CC3)NC1=O)C2(C)C` (stereo partly drawn) [Compound 134, tetrahydrofuran-3-yl N-[(1S)-1-[(1R,2S,5S)-2-[[(1S)-1-cyano-2-[(6R)-5-oxo-4-azaspiro[2.4]heptan-6-yl]ethyl]carbamoyl]-6,6-dimethyl-3-azabicyclo[3.1.0]hexane-3-carbonyl]-2,2-dimethyl-propyl]carbamate], the IC50 against 229E Mpro, at SARS-COV2 Mpro and against OC43 Mpro was below 2 µM throughout. Further, the EC50 in the assay with HCoV 229E is below 2 µM.
`CC(C)(C)C(=O)N[C@H](C(=O)N1C[C@H]2[C@@H]([C@H]1C(=O)N[C@H](C#N)C[C@@H]1CC3(CC3)NC1=O)C2(C)C)C(C)(C)C` [Compound 135, (1R,2S,5S)—N-[(1S)-1-cyano-2-[(6R)-5-oxo-4-azaspiro[2.4]heptan-6-yl]ethyl]-3-[(2S)-2-(2,2-dimethylpropanoylamino)-3,3-dimethyl-butanoyl]-6,6-dimethyl-3-azabicyclo[3.1.0]hexane-2-carboxamide]: the IC50 at 229E Mpro, against SARS-COV2 Mpro and on OC43 Mpro was below 2 µM each time. Moreover, in the assay with HCoV 229E, the concentration for a half-maximal effect (EC50) is below 2 µM.
As to `CC(C)(C)[C@H](NC(=O)C1(C(F)(F)F)CC1)C(=O)N1C[C@H]2[C@@H]([C@H]1C(=O)N[C@H](C#N)C[C@@H]1CC3(CC3)NC1=O)C2(C)C` [Compound 136, (1R,2S,5S)—N-[(1S)-1-cyano-2-[(6R)-5-oxo-4-azaspiro[2.4]heptan-6-yl]ethyl]-3-[(2S)-3,3-dimethyl-2-[[1-(trifluoromethyl)cyclopropanecarbonyl]amino]butanoyl]-6,6-dimethyl-3-azabicyclo[3.1.0]hexane-2-carboxamide], the IC50 against 229E Mpro, at SARS-COV2 Mpro and on OC43 Mpro was below 2 µM in each case. Moreover, the EC50 with HCoV 229E is below 2 µM.
On to `C[C@@H](OC1(C)CCC1)[C@H](NC(=O)C(F)(F)F)C(=O)N1C[C@H]2[C@@H]([C@H]1C(=O)N[C@H](C#N)C[C@@H]1CCCNC1=O)C2(C)C` [Compound 376], for which the EC50 in assay [1] was below 2 µM.

Broadly, the IC50 is the concentration needed to halve the response being measured. As usually defined, the EC50 is the concentration needed to bring the measured effect to its halfway point.
